Experimental data: ChEMBL document CHEMBL1781959, “Synthesis and in vitro antitumor activity of substituted quinazoline and quinoxaline derivatives: search for anticancer agent” (Eur J Med Chem, 2011)

Assays:
Type in all cases: functional
[1] = tested on: SF-268; test: Anticancer activity against human SF268 cells assessed as cell growth promotion at 10^-5 M after 48 hrs by SRB assay relative to control
[2] = tested on: SF-295; test: Anticancer activity against human SF295 cells assessed as cell growth promotion at 10^-5 M after 48 hrs by SRB assay relative to control
[3] = tested on: SF-539; test: Anticancer activity against human SF539 cells assessed as cell growth promotion at 10^-5 M after 48 hrs by SRB assay relative to control
[4] = tested on: SNB-19; test: Anticancer activity against human SNB19 cells assessed as cell growth promotion at 10^-5 M after 48 hrs by SRB assay relative to control
[5] = tested on: LOX IMVI; test: Anticancer activity against human LOXIMVI cells assessed as cell growth promotion at 10^-5 M after 48 hrs by SRB assay relative to control
[6] = tested on: Malme-3M; test: Anticancer activity against human MALME-3M cells assessed as cell growth promotion at 10^-5 M after 48 hrs by SRB assay relative to control
[7] = tested on: CCRF-CEM; test: Anticancer activity against human CCRF-CEM cells assessed as cell growth promotion at 10^-5 M after 48 hrs by SRB assay relative to control
[8] = tested on: M14; test: Anticancer activity against human M14 cells assessed as cell growth promotion at 10^-5 M after 48 hrs by SRB assay relative to control
[9] = tested on: MDA-MB-435; test: Anticancer activity against human MDA-MB-435 cells assessed as cell growth promotion at 10^-5 M after 48 hrs by SRB assay relative to control
[10] = tested on: SK-MEL-28; test: Anticancer activity against human SK-MEL-28 cells assessed as cell growth promotion at 10^-5 M after 48 hrs by SRB assay relative to control
[11] = tested on: SK-MEL-5; test: Anticancer activity against human SK-MEL-5 cells assessed as cell growth promotion at 10^-5 M after 48 hrs by SRB assay relative to control
[12] = tested on: UACC-257; test: Anticancer activity against human UACC257 cells assessed as cell growth promotion at 10^-5 M after 48 hrs by SRB assay relative to control
[13] = tested on: UACC-62; test: Anticancer activity against human UACC62 cells assessed as cell growth promotion at 10^-5 M after 48 hrs by SRB assay relative to control
[14] = tested on: OVCAR-5; test: Anticancer activity against human OVCAR5 cells assessed as cell growth promotion at 10^-5 M after 48 hrs by SRB assay relative to control
[15] = tested on: OVCAR-8; test: Anticancer activity against human OVCAR8 cells assessed as cell growth promotion at 10^-5 M after 48 hrs by SRB assay relative to control
[16] = tested on: NCI/ADR-RES; test: Anticancer activity against human NCI/ADR-RES cells assessed as cell growth promotion at 10^-5 M after 48 hrs by SRB assay relative to control
[17] = tested on: SK-OV-3; test: Anticancer activity against human SKOV3 cells assessed as cell growth promotion at 10^-5 M after 48 hrs by SRB assay relative to control
[18] = tested on: 786-0; test: Anticancer activity against human 786-0 cells assessed as cell growth promotion at 10^-5 M after 48 hrs by SRB assay relative to control
[19] = tested on: A498; test: Anticancer activity against human A498 cells assessed as cell growth promotion at 10^-5 M after 48 hrs by SRB assay relative to control
[20] = tested on: ACHN; test: Anticancer activity against human ACHN cells assessed as cell growth promotion at 10^-5 M after 48 hrs by SRB assay relative to control
[21] = tested on: RXF 393; test: Anticancer activity against human RXF393 cells assessed as cell growth promotion at 10^-5 M after 48 hrs by SRB assay relative to control
[22] = tested on: SN12C; test: Anticancer activity against human SN12C cells assessed as cell growth promotion at 10^-5 M after 48 hrs by SRB assay relative to control
[23] = tested on: UO-31; test: Anticancer activity against human UO31 cells assessed as cell growth promotion at 10^-5 M after 48 hrs by SRB assay relative to control
[24] = tested on: PC-3; test: Anticancer activity against human PC3 cells assessed as cell growth promotion at 10^-5 M after 48 hrs by SRB assay relative to control
[25] = tested on: MCF7; test: Anticancer activity against human MCF7 cells assessed as cell growth promotion at 10^-5 M after 48 hrs by SRB assay relative to control
[26] = tested on: K562; test: Anticancer activity against human K562 cells assessed as cell growth promotion at 10^-5 M after 48 hrs by SRB assay relative to control
[27] = tested on: MOLT-4; test: Anticancer activity against human MOLT4 cells assessed as cell growth promotion at 10^-5 M after 48 hrs by SRB assay relative to control
[28] = Anticancer activity against human Hs 578T cells assessed as cell growth promotion at 10^-5 M after 48 hrs by SRB assay relative to control
[29] = tested on: T47D; test: Anticancer activity against human T47D cells assessed as cell growth promotion at 10^-5 M after 48 hrs by SRB assay relative to control
[30] = tested on: MDA-MB-468; test: Anticancer activity against human MDA-MB-468 cells assessed as cell growth promotion at 10^-5 M after 48 hrs by SRB assay relative to control
[31] = tested on: A549; test: Anticancer activity against human A549 cells assessed as cell growth promotion at 10^-5 M after 48 hrs by SRB assay relative to control
[32] = tested on: EKVX; test: Anticancer activity against human EKVX cells assessed as cell growth promotion at 10^-5 M after 48 hrs by SRB assay relative to control
[33] = tested on: NCI-H23; test: Anticancer activity against human NCI-H23 cells assessed as cell growth promotion at 10^-5 M after 48 hrs by SRB assay relative to control
[34] = tested on: NCI-H322M; test: Anticancer activity against human NCI-H322M cells assessed as cell growth promotion at 10^-5 M after 48 hrs by SRB assay relative to control
[35] = tested on: NCI-H460; test: Anticancer activity against human NCI-H460 cells assessed as cell growth promotion at 10^-5 M after 48 hrs by SRB assay relative to control
[36] = tested on: HCC 2998; test: Anticancer activity against human HCC2998 cells assessed as cell growth promotion at 10^-5 M after 48 hrs by SRB assay relative to control
[37] = tested on: HCT-116; test: Anticancer activity against human HCT116 cells assessed as cell growth promotion at 10^-5 M after 48 hrs by SRB assay relative to control
[38] = tested on: HCT-15; test: Anticancer activity against human HCT15 cells assessed as cell growth promotion at 10^-5 M after 48 hrs by SRB assay relative to control
[39] = tested on: KM12; test: Anticancer activity against human KM12 cells assessed as cell growth promotion at 10^-5 M after 48 hrs by SRB assay relative to control
[40] = tested on: SW-620; test: Anticancer activity against human SW620 cells assessed as cell growth promotion at 10^-5 M after 48 hrs by SRB assay relative to control

Compound `O=C(Nc1ccccc1C(=O)Nc1ccc(/C=C/c2ccc(O)cc2)cc1)c1ccccc1` has an Activity [1] of 69.03%, an Activity [2] of 97.53% and an Activity [3] of 81.74%. For the same compound, the Activity [4] was 86.41%, the Activity [5] was 69.03% and the Activity [6] was 97.53%. It also gave an Activity [7] of 40.37%, an Activity [8] of 81.74% and an Activity [9] of 86.41%. The Activity [10] was 103%, the Activity [11] was 76.71% and the Activity [12] was 94.49%. For the same compound, the Activity [13] was 40.16%, the Activity [14] was 96.06% and the Activity [15] was 86.46%. The Activity [16] was 71.73%, the Activity [17] was 92.69% and the Activity [18] was 81.43%. It also gave an Activity [19] of 85.08%, an Activity [20] of 58.96% and an Activity [21] of 97.37%. For the same compound, the Activity [22] was 80.93%, the Activity [23] was 39.29% and the Activity [24] was 61.81%. For the same compound, the Activity [25] was 77.81%, the Activity [26] was 40.21% and the Activity [27] was 44.21%. The Activity [28] was 104%, the Activity [29] was 66.17% and the Activity [30] was 77.87%. For the same compound, the Activity [31] was 75.71%, the Activity [32] was 85.24% and the Activity [33] was 91.38%. It also gave an Activity [34] of 71.88%, an Activity [35] of 92.1% and an Activity [36] of 94.19%. It also gave an Activity [37] of 70.71%, an Activity [38] of 57.75% and an Activity [39] of 67.28%. For the same compound, the Activity [40] was 101%.
